Test results from ChEMBL document CHEMBL3861954, “A novel bis-furan scaffold for transthyretin stabilization and amyloid inhibition” (Eur J Med Chem, 2016).
Active and inactive are the calls of the source. No cut-off for these calls is given here.

Key:
[1] = Cytotoxicity against human HepG2 cells assessed as decrease in cell viability after 72 hrs by resazurin reduction assay; format: toxicity, cell-based; conditions: read-out: ID50
Transthyretin [2] = molecular target: T1, Transthyretin (Homo sapiens, UniProt P02766); assay: Stabilization of wild type TTR tetramer in human plasma assessed as tetramer to total protein ratio preincubated overnight at 4 degC followed by further incubation at room temperature for 1 hr in presence of 4M urea by isoelectric focusing densitometric analysis
[3] = tested on: Transthyretin (Homo sapiens), P02766 [V50M]; assay: Stabilization of TTR V30M mutant tetramer in human plasma assessed as tetramer to total protein ratio preincubated overnight at 4 degC followed by further incubation at room temperature for 1 hr in presence of 4M urea by isoelectric focusing densitometric analysis
Transthyretin [4] = molecular target: T1, Transthyretin; assay: Displacement of [125I]-T4 from wild type TTR in human plasma after 1 hr by PAGE analysis; format: cell-free
Transthyretin [5] = molecular target: T1, Transthyretin; assay: Stabilization of recombinant human wild type TTR expressed in Escherichia coli BL21 (DE3) assessed as inhibition of amyloid beta formation by measuring turbidity at 0.5 to 2 times molar concentration preincubated for 30 mins followed by lowering pH from 7.2 to 4.4 measured after 72 hrs by microplate spectrophotometric method
Transthyretin [6] = molecular target: T1, Transthyretin; assay: Stabilization of recombinant human wild type TTR expressed in Escherichia coli BL21 (DE3) assessed as inhibition of amyloid beta formation by measuring turbidity preincubated for 30 mins followed by lowering pH from 7.2 to 4.4 measured after 72 hrs by microplate spectrophotometric method
Transthyretin [7] = molecular target: T1, Transthyretin; assay: Binding affinity to recombinant human wild type TTR expressed in Escherichia coli BL21 (DE3) assessed as dissociation constants for second binding site of TTR by isothermal titration calorimetric method
Transthyretin [8] = molecular target: T1, Transthyretin; assay: Binding affinity to recombinant human wild type TTR expressed in Escherichia coli BL21 (DE3) assessed as dissociation constants for first binding site of TTR by isothermal titration calorimetric method

| Structure (SMILES) | Ratio (Transthyretin [2]) | Ratio [3] | inhibition (Transthyretin [4]) | CC50 at 72 h [1] [µM] | also measured |
| --- | --- | --- | --- | --- | --- |
| Oc1c(Cl)cc(-c2cc(Cl)c(O)c(Cl)c2)cc1Cl | – | – | – | 60 | – |
| Cc1c(C(=O)O)coc1/C=C/c1ccc(Cl)o1 | 0.961 | 0.481 | Active | 181 | – |
| N[C@@H](Cc1cc(I)c(Oc2cc(I)c(O)c(I)c2)c(I)c1)C(=O)O | – | – | – | – | inhibition (Transthyretin [5]): Active |
| Cc1oc(/C=C/c2ccc(Cl)o2)cc1C(=O)O | – | – | – | 225 | IC50 (Transthyretin [6]): 2.49 µM; Kd (Transthyretin [7]): 0.278 µM; Kd (Transthyretin [8]): 0.0039 µM |

More lines, main results first:

| Ratio (Transthyretin [2]) | Ratio [3] | inhibition (Transthyretin [4]) | Structure (SMILES) | CC50 at 72 h [1] [µM] | also measured |
| --- | --- | --- | --- | --- | --- |
| 0.768 | 0.445 | Active | O=C(O)c1cc(-c2ccc(F)cc2F)cc(I)c1O | – | – |
| – | – | Active | O=C(O)c1ccc2nc(-c3cc(Cl)cc(Cl)c3)oc2c1 | 247 | – |
